Test results reported in patent EP0110955B1, “BRAIN-SPECIFIC DRUG DELIVERY” (UNIVERSITY OF FLORIDA, priority 1982, dated 1983).

Legend:
serum prolactin = experiment: In vivo effect on pituitary prolactin secretion (17-β-estradiol primed male rats); settings: I.V. 1 mg/kg
From the text: Adult male rats (Charles Rivers, CD-1) weighing 200 to 225 g were provided food and water ad libitum for at least one week period to experimentation. To elevate serum prolactin levels, each rat received a single s.c. implant of a Silastic tube (1.57 mm interior diameter, 5 mm x 3.15 mm overall size) packed with crystalline 17-,8-estradiol. Two days later the rats were lightly anesthetized with ether and a small incision was made over the right jugular vein for intravenous (LV.) administration of the test drugs. Compound 6a was injected at a dose of 1 mg/kg body weight/ml saline and groups of six rats were decapitated at 15, 30, 60 and 120 min later to collect blood samples. Control rats (time 0) received an I.V. injection of the saline vehicle and were decapitated 30 min later. Compound 5c was dissolved in 10% ethanol in saline and was injected IV. Rats were decapitated at 15, 30 and 120 min later. Control (time 0) animals received the 10% ethanol vehicle and were sampled 30 min later.
Trunk blood was collected, allowed to clot for 2h and the serum was separated and stored at -20 ° C for subsequent assay for prolactin concentrations. Each serum sample was assayed in duplicate by the doubleantibody radioimmunoassay procedure described by the National Pituitary Agency Hormone Distribution Program. Serum prolactin concentrations are expressed in terms of the PRL-RP-2 reference preparation provided. The intraassay coefficient of variation for 10 replicate samples of pooled serum obtained from male rats was 13.8%.
The effects of compounds 5c and 6a on serum prolactin concentrations were evaluated by one-way analysis of variance and Student-Newman Keuls tests. A probability level of less than 0.05 was selected for significance. See FIGURE 7 and the discussion thereof hereinabove.

[1] = molecular target: T1, COMT (catechol-O-methyltransferase) (Rattus norvegicus, UniProt P22734); experiment: O-methyl metabolite formation by COMT in biological fluids; type: in vitro ADME; settings: no methoxy derivatives detected in any of the biological fluids studied
T1 construct: from tissue; host or cells: rat brain homogenate (20%), rat liver homogenate (20%); also 80% plasma and whole citrated blood
T1 sequence (P22734 1-264): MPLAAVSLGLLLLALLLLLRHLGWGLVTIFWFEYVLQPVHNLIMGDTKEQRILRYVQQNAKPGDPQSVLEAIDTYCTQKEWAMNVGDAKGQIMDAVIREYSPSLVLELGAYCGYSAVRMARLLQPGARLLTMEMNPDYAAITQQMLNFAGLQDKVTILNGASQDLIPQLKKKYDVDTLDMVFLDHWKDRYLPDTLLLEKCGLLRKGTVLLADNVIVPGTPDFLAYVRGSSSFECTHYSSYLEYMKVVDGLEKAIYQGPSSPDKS
Method: In an attempt to ascertain whether any biotransformation of the free catechol is taking place by COMT (catechol-O-methyltransferase) either before or after oxidation, the possible O-methyl metabolites (9 and 10) were synthesized separately following Scheme 4 with 3-methoxytyramine hydrochloride as the starting material. [drawing 52] [drawing 53]
Figures 1-4 illustrate the results of such an investigation. The apparent half-lives for the disappearance of 5c in biological fluids at 37°C were calculated. […] The obtained values, 51 min (80% plasma), 17 min (20% brain homogenate), 18 min (whole citrated blood) and 6 min (20% liver homogenate), reflect an acceptable stability of the dihydro derivative 5c. The disappearance of 5c is accompanied by formation of some monoester (11) and dihydroxy dihydro form (5a) in all the media except the liver homogenate. The rate of hydrolysis of the first ester moiety is faster than the second and a reasonable amount of monoester 11 builds up with time. […] Thus, it is established that this derivative, 6a, is forming as the main product of the various interconversion routes and it is the direct precursor thus concluded to be locked in the brain in the in vivo experiment.

anterior pituitary (AP) = experiment: In vitro evaluation of the prolactin inhibitory effect on incubated anterior pituitaries; type: cell-based, rats; settings: for Prolactin release rate of the incubated AP-S: 37°C, average of 9 separate AP-S
Method: Adult female rats (Charles Rivers Lab.) weighing 225-250 g were maintained on food and water ad libitum. Animals were sacrificed by decapitation; their pituitary glands were quickly removed from the cranium. The anterior pituitary (AP) of each animal was dissected into two equal halves and placed into incubation media. (Gibco's Minimal Essential Media supplied by Grand Island Biological Co. was used.) The incubation was conducted at 37 °C, under continuous aeration (95% 02, 5% C02); the pH was 7.2. After one hour of preincubation, the media were discarded and replaced with fresh ones containing either DA ( 2 x 10-^8 M), 6a ( 2 x 10-^8) or ascorbic acid (10-^4 M). In all cases, one-half of AP received the test drug; the other, the ascorbate control. After one hour, samples were taken from the media and the remaining media were discarded. […] One hour later, the second samples were taken After the 3 h incubation period, each half AP's were weighed. The samples were diluted 1:50 with phosphate buffered saline and then assayed in triplicate by the radioimmunoassay method described. The data are given as ng prolactin released/mg wet weight/h. Paired Student's T-test was used to evaluate the significance of the inhibitory effects of the test drugs on prolactin secretion The control AP half and the drug treated half were employed in each paired comparison. See TABLE I and the discussion thereof hereinabove.

[2] = Lability of the catechol esters to hydrolysis; type: physicochemical; settings: diacetyl derivatives
From the text: Attempts to prepare 7 by using dopamine free base were largely unsuccessful. As for the catechol protecting groups, the acetyl and pivalyl moieties were selected due to their rather different steric and partitioning parameters. Acylation could be accomplished with the acyl chlorides by using conventional methods. Reduction of the quaternaries (6a-c and 9) was accomplished by using sodium dithionite in mildly basic aqueous solution, (NaHC03). It was observed that the dihydro compound obtained in the case of the quaternary 6b gave a faint green color with ferric ions, indicating partial hydrolysis of at least one of the acetyl moieties during reduction, even in the cold, weakly basic solution used as a medium. The dihydropyridine derivatives isolated (5a-c and 10) were determined to have the expected 1,4-dihydropyridine structure, based on their NMR and UV spectra.
The dipivalyldihydro derivative (5c) was thoroughly investigated for its in vitro rates of disappearance and metabolic degradation in various biological fluids. It is evident that 5c represents a rather complex case, as besides oxidation, a two-step hydrolysis will also take place. Scheme 5 illustrates the interconversion of the possible components. [drawing 54]

[3] = cited from earlier work
[4] = Kinetics of oxidation of the dihydro derivatives in brain homogenate; type: in vitro ADME, rat; settings: pH 7.4, 37°C; for half-life: rat
Method: In Brain Homogenate: 2.0 g of rat brain tissue were homogenized in 10 ml of phosphate buffer, pH 7.4. The homogenate was centrifuged for 15 min at 3000 rpm, decanted, heated in a water bath at 50°C for 5 min and then centrifuged again. The supernatant solution was diluted to 100 ml with phosphate buffer, pH 7.4.
Reference Sample: 0.2 ml of methyl alcohol was diluted to 10 ml with the brain homogenate solution, and the solution was used to record the base line on Cary 219 spectrophotometer and as a reference for the dihydro derivative sample solution.
Dihydro Derivative Sample Solutions: 0.2 ml of 6.25 x 10-^4 M methanolic solution of the freshly prepared dihydro derivative was diluted to 10 ml with the brain homogenate solution. The mixture was scanned at 37 ° C from 400 nm to 300 nm every 10 min for 2 hrs on […] spectrophotometer.

[5] = Kinetics of oxidation of the dihydro derivatives in whole blood; type: in vitro ADME, human; settings: 37°C; for half-life: human
Method: In Whole Blood: In each of 5 tubes, 0.1 ml of 10 x 10-^4 M methanolic solution of the freshly prepared dihydro derivative, was added 2 ml of fresh heparinized whole human blood and the tubes were kept at 37°C in a water bath. At the end of the time period to be investigated, 8 ml of acetonitrile was added, shaken vigorously and centrifuged. The extension of the supernatant solution at 350 nm was measured. A reference sample was made by addition of 0.1 ml of methyl alcohol instead of the sample solution following the same procedure.

[6] = Chemical oxidation by hydrogen peroxide and silver nitrate; type: physicochemical; settings: 30% H2O2, UV spectrum
Method: The stability of the 1,4-dihydropyridine derivatives (5) was determined in the presence of the oxidizing agents, alcoholic AgN03 and hydrogen peroxide. The in vitro rates of oxidation of the 1,4-dihydropyridine derivative (5c) in 80% plasma, 20% brain homogenate, 20% liver homogenate and in whole blood were determined.
To 10 ml of 30% H202 was added 0.2 g of the dihydropyridine derivative (products of Examples 5 or 8). The mixture was stirred and samples were taken to check the UV spectrum.
To 5 ml of saturated methanolic AgN03 solution was added 1 ml of 5% methanolic solution of the dihydropyridine derivative. The mixture was shaken and left for 5 min for complete precipitation of silver, centrifuged and an aliquot was taken to check the UV spectrum. Complete oxidation to the quaternary salts was observed.

C[n+]1cccc(C(=O)NCCc2ccc(O)c(O)c2)c1 [6a]
serum prolactin levels versus vehicle injected controls (serum prolactin; by 60 and 120 min): not significantly different from vehicle injected controls | effect on the serum prolactin concentrations (serum prolactin; by 15 min): no significant effect | reduction of serum prolactin concentrations (serum prolactin; by 30 min): 67% | substrate for COMT [1]: do not appear to be good substrates for COMT | reduction of the prolactin rate secretion (anterior pituitary (AP); 2x10-^7 M): no effect | Prolactin release rate of the incubated AP-S (anterior pituitary (AP); 2x10^-7M): 277±32 ng/mg. h | effect on the rate of release of prolactin (anterior pituitary (AP); 2x10^-8M): neither DA nor 6a had any effect | Prolactin release rate of the incubated AP-S (anterior pituitary (AP); 2x10^-8M): 386±29 ng/mg. h

NCCc1ccc(O)c(O)c1 [DA, dopamine, reference compound]
Prolactin release rate of the incubated AP-S (anterior pituitary (AP); 2x10^-7M): 121±38 ng/mg. h | effect on the rate of release of prolactin (anterior pituitary (AP); 2x10^-8M): neither DA nor 6a had any effect | Prolactin release rate of the incubated AP-S (anterior pituitary (AP); 2x10^-8M): 355±67 ng/mg. h | inhibition at 0.2 µM (anterior pituitary (AP); Rattus norvegicus, 1 h, 2x10-^7 M, read-out: reduction of the prolactin rate secretion): 57%

CC(=O)Oc1ccc(CCNC(=O)C2=CN(C)C=CC2)cc1OC(C)=O [5b, 1-Methyl-3-(N-[6-(3,4-diacetoxyphenyl)-ethyl]}carbamoyl-1,4-dihydropyridine]
lability to hydrolysis [2]: labile to hydrolysis

CCCC(CCC)C(=O)[O-].[Na+] [sodium valproate]
level in the blood needed to achieve the required activity [3]: 50 to 100 µg/mL

CC(=O)Oc1ccc(CCNC(=O)c2ccc[n+](C)c2)cc1OC(C)=O [6b, 1-Methyl-3-{N-[β-(3,4-diacetoxy-phenyl)ethyl]} carbamoyl-pyridinium iodide]
lability to hydrolysis [2]: labile to hydrolysis

CCOC(=O)C1=CN(C)C=C(C(=O)NCCc2ccccc2)C1 [5-Carboethoxy-1-methyl-3-(N-β-phenethyl)carbamoyl-1,4-dihydropyridine]
Kinetics of Oxidation (rate constant) [4]: 1.74 x 10^-5 n=6 r=.993 | half-life [4]: 11.1 h | Kinetics of Oxidation (rate constant) [5]: 1.13 x 10^-4 n=5 r=.972 | half-life [5]: 1.7 h | Oxidation by Hydrogen Peroxide [6]: Complete oxidation to the corresponding quaternary salts

CN1C=C(C(=O)NCCc2ccccc2)CC(C(=O)NCCc2ccccc2)=C1 [1-Methyl-3,5-di(N-β-phenethyl)carbamoyl-1,4-dihydropyridine]
Kinetics of Oxidation (rate constant) [4]: 8.4 x 10^-6 n=6 r=.997 | half-life ([4]; unit inferred): 22.9 h | Kinetics of Oxidation (rate constant) [5]: 4.9 x 10^-5 n=5 r=.949 | half-life ([5]; unit inferred): 3.9 h | Oxidation by Hydrogen Peroxide [6]: Complete oxidation to the corresponding quaternary salts

CN1C=CCC(C(=O)NCCc2ccc(O)c(O)c2)=C1 [5a, 1-Methyl-3-{N-[β-(3,4-dihydroxyphenyl)-ethyl]}carbamoyl-1,4-dihydropyridine]
substrate for COMT [1]: do not appear to be good substrates for COMT
